Data: ChEMBL document CHEMBL1141235, “Synthesis and preliminary evaluation of [3H]PSB-0413, a selective antagonist radioligand for platelet P2Y12 receptors” (Bioorg Med Chem Lett, 2005)

Molecular target: P2Y purinoceptor 12 (Homo sapiens, UniProt Q9H244)
Experiment: Binding affinity to P2Y12 receptor expressed in human platelets from 0.047 to 50 nM

Chain of P2Y purinoceptor 12 (Q9H244 whole entry): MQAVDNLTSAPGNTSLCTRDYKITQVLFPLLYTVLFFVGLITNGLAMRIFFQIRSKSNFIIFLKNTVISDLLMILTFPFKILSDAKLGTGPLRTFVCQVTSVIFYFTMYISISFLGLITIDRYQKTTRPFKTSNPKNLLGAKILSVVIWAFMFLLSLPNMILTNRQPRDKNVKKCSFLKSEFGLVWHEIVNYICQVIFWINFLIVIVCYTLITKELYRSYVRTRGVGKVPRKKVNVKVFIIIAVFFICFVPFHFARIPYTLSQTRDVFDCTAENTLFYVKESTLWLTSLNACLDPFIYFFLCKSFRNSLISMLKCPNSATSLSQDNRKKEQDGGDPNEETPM

[3H]C([3H])([3H])C([3H])([3H])CSc1nc(N)c2ncn([C@@H]3O[C@H](COP(=O)(O)OP(=O)(O)C(Cl)(Cl)P(=O)(O)O)[C@@H](O)[C@H]3O)c2n1
Kd: 4.57 nM
